Patent US4459290A, “C-23-Modified derivatives of OMT, pharmaceutical compositions and method of use” (priority 1982, dated 1984)
Values after ≈ are worked out from the molar mass of the structure shown. Read-outs that look alike come from different tables or passages of the source.

Assays:
[1] = system: Pasteurella hemolytica 22C; test: MIC, broth-dilution microtiter test (Table VII); format: cell-based; conditions: Pasteurella, P. hemolytica 22C, read-out: MIC
Procedure, shortened: (§1)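 Broth microdilution, run as a conventional microtiter test, supplied MICs for the gram-positive S. aureus and the Pasteurella isolates. Enterobacter data instead rest on a standard agar-dilution procedure.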

[2] = system: Pasteurella multocida 68C; test: MIC, broth-dilution microtiter test (Table VII); format: cell-based; conditions: Pasteurella multocida; P. multocida 68C; broth-dilution microtiter; read-out: MIC
Procedure, shortened: as §1

Mycoplasma hyorhinis = test: MIC, broth-dilution microtiter test (Table VII); format: cell-based; conditions: M. hyorhinis; broth-dilution microtiter; read-out: MIC
Experimental: (§2) Especially noteworthy is the improved activity against gram-negative bacteria for several derivatives when compared to the activity of OMT. […] The MIC's in Tables V and VI were determined by standard agar-dilution assays. The MIC's in Table VII were obtained using a conventional broth-dilution microtiter test.

Mycoplasma synoviae = test: MIC, broth-dilution microtiter test (Table VII); format: cell-based; conditions: Mycoplasmopsis synoviae; M. synoviae; broth-dilution microtiter; read-out: MIC
Experimental: as §2

Mycoplasma gallisepticum = test: MIC, broth-dilution microtiter test (Table VII); format: cell-based; conditions: Mycoplasmoides gallisepticum; M. gallisepticum; broth-dilution microtiter; read-out: MIC
Experimental: as §2

[3] = system: Pasteurella hemolytica 41D; test: MIC, broth-dilution microtiter test (Table VII); format: cell-based; conditions: Pasteurella, P. hemolytica 41D, read-out: MIC
Procedure, shortened: as §1

[4] = system: Pasteurella multocida 22A; test: MIC, broth-dilution microtiter test (Table VII); format: cell-based; conditions: Pasteurella multocida; P. multocida 22A; broth-dilution microtiter; read-out: MIC
Procedure, shortened: as §1

[5] = system: Pasteurella multocida 40G; test: MIC, broth-dilution microtiter test (Table VII); format: cell-based; conditions: Pasteurella multocida; P. multocida 40G; broth-dilution microtiter; read-out: MIC
Procedure, shortened: as §1

[6] = system: Pasteurella hemolytica 23C; test: MIC, broth-dilution microtiter test (Table VII); format: cell-based; conditions: Pasteurella, P. hemolytica 23C, read-out: MIC
Procedure, shortened: as §1

Staphylococcus aureus = test: MIC, broth-dilution microtiter test (Table VII); format: cell-based; conditions: Staphylococcus aureus; S. aureus; broth-dilution microtiter; read-out: MIC
Procedure, shortened: as §1

[7] = system: Pasteurella multocida 60A; test: MIC, broth-dilution microtiter test (Table VII); format: cell-based; conditions: Pasteurella multocida; P. multocida 60A, avian isolate; broth-dilution microtiter; read-out: MIC
Procedure, shortened: as §1

Streptococcus sp. 80 = test: MIC, broth-dilution microtiter test (Table VII); format: cell-based; conditions: Streptococcus sp. 80; broth-dilution microtiter; read-out: MIC
Experimental: as §2

[8] = system: Pasteurella multocida 17E; test: MIC, broth-dilution microtiter test (Table VII); format: cell-based; conditions: Pasteurella multocida; P. multocida 17E, bovine isolate; broth-dilution microtiter; read-out: MIC
Procedure, shortened: as §1

[9] = system: Pseudomonas aeruginosa Ps18; test: MIC, standard agar-dilution assay (Table VI); format: cell-based; conditions: PS18
Experimental: as §2

Serratia marcescens X99 = test: MIC, standard agar-dilution assay (Table VI); format: cell-based; conditions: X99
Experimental: as §2

Enterobacter cloacae EB5 = test: MIC, standard agar-dilution assay (Table VI); format: cell-based; conditions: EB5
Procedure, shortened: as §1

Salmonella typhi 1335 = test: MIC, standard agar-dilution assay (Table VI); format: cell-based; conditions: Salmonella enterica
Procedure, shortened: (§3)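 Growth inhibition in liquid medium, in a routine microtiter broth-dilution series, gave the MIC against staphylococci and pasteurellae; the gram-negative enteric strain was tested by conventional agar dilution instead.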

[10] = system: Enterobacter aerogenes C32; test: MIC, standard agar-dilution assay (Table VI); format: cell-based; conditions: Klebsiella aerogenes, C32
Procedure, shortened: as §1

[11] = system: Pseudomonas aeruginosa X239; test: MIC, standard agar-dilution assay (Table VI); format: cell-based; conditions: X239
Experimental: as §2

[12] = system: Enterobacter aerogenes EB17; test: MIC, standard agar-dilution assay (Table VI); format: cell-based; conditions: Klebsiella aerogenes, EB17
Procedure, shortened: as §1

[13] = system: Citrobacter freundii CF17; test: MIC, standard agar-dilution assay (Table VI); format: cell-based; conditions: CF17
Procedure, shortened: as §3

Proteus inconstans PR33 = test: MIC, standard agar-dilution assay (Table VI); format: cell-based; conditions: Providencia alcalifaciens, PR33
Procedure, shortened: as §3

Serratia marcescens SE3 = test: MIC, standard agar-dilution assay (Table VI); format: cell-based; conditions: SE3
Procedure, shortened: as §3

[14] = system: Pseudomonas aeruginosa X528; test: MIC, standard agar-dilution assay (Table VI); format: cell-based; conditions: P. aeruginosa X528, agar dilution, read-out: MIC
Experimental: as §2

[15] = system: Salmonella heidelberg X514; test: MIC, standard agar-dilution assay (Table VI); format: cell-based; conditions: Salmonella enterica, X514
Procedure, shortened: as §3

Proteus morganii PR15 = test: MIC, standard agar-dilution assay (Table VI); format: cell-based; conditions: Morganella morganii, PR15
Procedure, shortened: as §3

Proteus rettgeri PR7 = test: MIC, standard agar-dilution assay (Table VI); format: cell-based; conditions: Providencia rettgeri, PR7
Procedure, shortened: as §3

[16] = system: Klebsiella pneumoniae X68; test: MIC, standard agar-dilution assay (Table VI); format: cell-based; conditions: X68
Procedure, shortened: as §3

Proteus rettgeri C24 = test: MIC, standard agar-dilution assay (Table VI); format: cell-based; conditions: Providencia rettgeri, P. rettgeri C24
Experimental: as §2

[17] = system: Staphylococcus aureus V41; test: MIC, standard agar-dilution assay (Table V); format: cell-based; conditions: Staphylococcus aureus, V41
Experimental: as §2

[18] = system: Staphylococcus aureus X400; test: MIC, standard agar-dilution assay (Table V); format: cell-based; conditions: Staphylococcus aureus, X400
Experimental: as §2

[19] = system: Staphylococcus aureus X1.1; test: MIC, standard agar-dilution assay (Table V); format: cell-based; conditions: Staphylococcus aureus, X1.1
Experimental: as §2

Streptococcus Group 9960 = test: MIC, standard agar-dilution assay (Table V); format: cell-based; conditions: GROUP9960
Experimental: as §2

[20] = system: Streptococcus Group D X66; test: MIC, standard agar-dilution assay (Table V); format: cell-based; conditions: Streptococcus Group D X66; agar dilution; read-out: MIC
Experimental: as §2

[21] = system: Streptococcus pyogenes C203; test: ED50 in mice experimentally infected with S. pyogenes C203 (Table VIII); format: in vivo
Experimental: The C-23 modified derivatives of OMT of this invention have shown in vivo antimicrobial activity against experimental infections. When two doses of test compound were administered to mice experimentally infected with a gram-positive bacterium, S. pyogenes C203, the activity observed was measured as an ED50 value [effective dose in mg/kg to protect 50% of the test animals: see Warren Wick, et al., J. Bacteriol. 81, 233-235 (1961)].

[22] = system: Streptococcus pneumoniae Park I; test: microbe, parasite or virus in culture; format: cell-based; conditions: Streptococcus pneumoniae; read-out: MIC
Experimental: as §2

SMILES: CCC1OC(=O)CC(O)C(C)C(OC2OC(C)C(O)C(N(C)C)C2O)C(CC=O)CC(C)C(=O)C=CC(C)=CC1CSC(C)=O (stereo not shown) [Compound 7, 23-Deoxy-23-(acetyl)thio-OMT]
- MIC [1]: 6.25 µg/mL (≈ 9.53 µM)
- MIC [2]: 1.56 µg/mL (≈ 2.38 µM)
- MIC (Mycoplasma hyorhinis): 6.25 µg/mL (≈ 9.53 µM)
- MIC (Mycoplasma synoviae): ≤ 0.05 µg/mL
- MIC (Mycoplasma gallisepticum): 0.19 µg/mL (≈ 0.29 µM)
- MIC [3]: 6.25 µg/mL (≈ 9.53 µM)
- MIC [4]: 1.56 µg/mL (≈ 2.38 µM)
- MIC [5]: 0.78 µg/mL (≈ 1.19 µM)
- MIC [6]: 6.25 µg/mL (≈ 9.53 µM)
- MIC (Staphylococcus aureus): 0.39 µg/mL (≈ 0.595 µM)
- MIC [7]: 3.12 µg/mL (≈ 4.76 µM)
- MIC (Streptococcus sp. 80): 0.39 µg/mL (≈ 0.595 µM)
- MIC [8]: 3.12 µg/mL (≈ 4.76 µM)
- MIC [9]: > 128 µg/mL
- MIC (Serratia marcescens X99): > 128 µg/mL
- MIC (Enterobacter cloacae EB5): > 128 µg/mL
- MIC (Salmonella typhi 1335): > 128 µg/mL
- MIC [10]: > 128 µg/mL
- MIC [11]: > 128 µg/mL
- MIC [12]: > 128 µg/mL
- MIC [13]: > 128 µg/mL
- MIC (Proteus inconstans PR33): > 128 µg/mL
- MIC (Serratia marcescens SE3): > 128 µg/mL
- MIC [14]: 32 µg/mL (≈ 48.8 µM)
- MIC [15]: > 128 µg/mL
- MIC (Proteus morganii PR15): > 128 µg/mL
- MIC (Proteus rettgeri PR7): > 128 µg/mL
- MIC [16]: > 128 µg/mL
- MIC (Proteus rettgeri C24): 64 µg/mL (≈ 97.6 µM)
- MIC [17]: 0.25 µg/mL (≈ 0.381 µM)
- MIC [18]: 0.25 µg/mL (≈ 0.381 µM)
- MIC [19]: 0.25 µg/mL (≈ 0.381 µM)
- MIC (Streptococcus Group 9960): 0.25 µg/mL (≈ 0.381 µM)
- MIC [20]: 0.5 µg/mL (≈ 0.762 µM)
- ED50 ([21]; C203, po, read-out: ED50, Oral): > 100 mg/kg
- ED50 ([21]; C203, sc, mice, subcutaneous, doses given 1 and 4 hours postinfection, read-out: ED50, Subcutaneous): 21.4 mg/kg
- MIC [22]: 0.06 µg/mL (≈ 0.0915 µM)
